Results as given in ChEMBL document CHEMBL1153821, “Identification of novel inhibitors of HCV RNA-dependent RNA polymerase by pharmacophore-based virtual screening and in vitro evaluation” (Bioorg Med Chem, 2009).
pIC50: −log10 of the molar value. Active and inactive are the calls of the source. The rule behind the calls is not given here.

How the values were obtained:
Hepatitis C virus [1] = test: Inhibition of HCV1b NS5B polymerase after 2 hrs by RdRp activity assay; design: species or system Hepatitis C virus subtype 1b
Hepatitis C virus [2] = test: Inhibition of HCV1b NS5B polymerase assessed as [alpha-32P]UTP incorporation by non-competitive double reciprocal plot; details: Hepatitis C virus subtype 1b
Hepatitis C virus [3] = test: Inhibition of HCV1b NS5B polymerase at 100 uM after 2 hrs by RdRp activity assay; design: species or system Hepatitis C virus subtype 1b

SMILES	pIC50 (Hepatitis C virus [1])	Activity (Hepatitis C virus [2])	inhibition at 100 µM (Hepatitis C virus [3])
O=C(Nc1cccn(Cc2ccc(Cl)c(Cl)c2)c1=O)Sc1cccc(C(F)(F)F)c1	4.70	Active	> 80%
Nc1ncnc2c1ncn2/C=C/C(=O)c1ccccc1	4.70	Active	> 80%
Nc1ncnc2c1ncn2/C=C/C(=O)c1ccco1	4.70	Active	> 80%
